According to patent publication US8415342B2, “Besifloxacin ophthalmic composition for the treatment or control of infection” (Bausch & Lomb Incorporated, priority 2008, dated 2013):
Values after ≈ are worked out from the molar mass of the structure shown. Where two headings read alike, the source gives them in different places.

Columns and labels:
Assay type in all cases: cell-based
Staphylococcus aureus = assay: MIC, CLSI broth microdilution, clinical isolates; details: for MIC50 / MIC90: Staphylococcus aureus
[1] = system: Staphylococcus epidermidis; assay: MIC, CLSI broth microdilution, clinical isolates; details: for MIC50: Staphylococcus epidermidis
[2] = system: Staphylococcus lugdunensis; assay: MIC, CLSI broth microdilution, clinical isolates; details: Staphylococcus lugdunensis (N = 15)
[3] = system: Staphylococcus saprophyticus; assay: MIC, CLSI broth microdilution, clinical isolates; details: Staphylococcus saprophyticus (N = 101)
[4] = system: Staphylococcus haemolyticus; assay: MIC, CLSI broth microdilution, clinical isolates; details: Staphylococcus haemolyticus (N = 101)
Staphylococcus warneri = assay: MIC, CLSI broth microdilution, clinical isolates; details: Staphylococcus warneri (N = 50)
Staphylococcus hominis = assay: MIC, CLSI broth microdilution, clinical isolates; details: Staphylococcus hominis (N = 50)
Streptococcus agalactiae = assay: MIC, CLSI broth microdilution, clinical isolates; details: Streptococcus agalactiae (N = 100)
Streptococcus pneumoniae = assay: MIC, CLSI broth microdilution, clinical isolates
Streptococcus pyogenes = assay: MIC, CLSI broth microdilution, clinical isolates; details: Streptococcus pyogenes (N = 101)
[5] = system: Lancefield group C, F, G streptococci; assay: MIC, CLSI broth microdilution, clinical isolates; details: G streptococci (N = 50)
Viridans streptococci = assay: MIC, CLSI broth microdilution, clinical isolates; details: Viridans streptococci (N = 156)
Citrobacter koseri = assay: MIC, CLSI broth microdilution, clinical isolates; details: Citrobacter koseri (N = 100)
Klebsiella oxytoca = assay: MIC, CLSI broth microdilution, clinical isolates; details: Klebsiella oxytoca (N = 50)
Haemophilus influenzae = assay: MIC, CLSI broth microdilution, clinical isolates; details: for MIC50 / MIC90: Haemophilus influenzae
Legionella pneumophila = assay: microbe, parasite or virus in culture
Moraxella catarrhalis = assay: MIC, CLSI broth microdilution, clinical isolates; details: Moraxella catarrhalis (N = 101)
Morganella morganii = assay: MIC, CLSI broth microdilution, clinical isolates; details: Morganella morganii (N = 51)
[6] = Staphylococcus aureus (CNS, N = 16)
[7] = Staphylococcus aureus (CS, N = 14)
[8] = Staphylococcus aureus (MSSA, N = 19)
[9] = Staphylococcus aureus (all phenotypes, N = 30)
[10] = MRSA, Staphylococcus aureus (MRSA, N = 11)
[11] = MSSA, Staphylococcus aureus (MSSA, N = 19)
[12] = Staphylococcus epidermidis (CNS, N = 6)
[13] = Staphylococcus epidermidis (CS, N = 9)
[14] = Staphylococcus epidermidis (MRSE, N = 9)
[15] = Staphylococcus epidermidis (MSSE, N = 6)
[16] = Staphylococcus epidermidis (all phenotypes, N = 15)
[17] = Streptococcus pneumoniae (PSSP, N = 31)
[18] = Haemophilus influenzae (all phenotypes, N = 40)
[19] = Haemophilus influenzae (bla negative, N = 24)
[20] = Haemophilus influenzae (bla positive, N = 16)

NC[C@H]1O[C@H](O[C@H]2[C@H](O)[C@@H](O[C@H]3O[C@H](CO)[C@@H](O)[C@H](N)[C@H]3O)[C@H](N)C[C@@H]2N)[C@H](N)C[C@@H]1O [Tobramycin]
% S (Staphylococcus aureus; [6]): 68.8%
% S (Staphylococcus aureus; [7]): 92.9%
MIC Range (Staphylococcus aureus; [7]): 0.12 to 8 µg/mL
% S (Staphylococcus aureus; Staphylococcus aureus (MRSA, N = 11)): 54.5%
% S (Staphylococcus aureus; [8]): 94.7%
MIC Range (Staphylococcus aureus; [8]): 0.12 to 8 µg/mL
% S (Staphylococcus aureus; [9]): 80.0%
MIC50 (Staphylococcus aureus; [10]): 1 µg/mL (≈ 2.14 µM)
MIC90 (Staphylococcus aureus; [10]): > 32 µg/mL
MIC50 (Staphylococcus aureus; [11]): 0.25 µg/mL (≈ 0.535 µM)
MIC90 (Staphylococcus aureus; [11]): 1 µg/mL (≈ 2.14 µM)
MIC50 (Staphylococcus aureus; [6]): 0.5 µg/mL (≈ 1.07 µM)
MIC90 (Staphylococcus aureus; [6]): > 32 µg/mL
MIC50 (Staphylococcus aureus; [7]): 0.25 µg/mL (≈ 0.535 µM)
MIC90 (Staphylococcus aureus; [7]): 1 µg/mL (≈ 2.14 µM)
MIC50 (Staphylococcus aureus; [9]): 0.5 µg/mL (≈ 1.07 µM)
MIC90 (Staphylococcus aureus; [9]): > 32 µg/mL
% S [1, 12]: 83.3%
MIC Range [1, 12]: 0.06 to 16 µg/mL
% S [1, 13]: 88.9%
MIC Range [1, 13]: ≦0.008-8 μg/mL
% S [1, 14]: 77.8%
MIC Range [1, 14]: 0.03 to 16 µg/mL
% S [1, 15]: 100.0%
MIC Range [1, 15]: ≦0.008-0.06 μg/mL
% S [1, 16]: 86.7%
MIC90 [1, 16]: 8 µg/mL (≈ 17.1 µM)
MIC Range [1, 16]: ≦0.008-16 μg/mL
MIC50 ([1]; MRSE, Staphylococcus epidermidis (MRSE, N = 9)): 4 µg/mL (≈ 8.56 µM)
MIC50 [1, 12]: 2 µg/mL (≈ 4.28 µM)
MIC50 [1, 13]: 0.03 µg/mL (≈ 0.0642 µM)
MIC50 [1, 15]: 0.03 µg/mL (≈ 0.0642 µM)
MIC50 [1, 16]: 0.06 µg/mL (≈ 0.128 µM)
% S [2]: 60.0%
MIC50 [2]: 0.12 µg/mL (≈ 0.257 µM)
MIC90 [2]: 32 µg/mL (≈ 68.4 µM)
% S [3]: 99.0%
MIC50 [3]: 0.015 µg/mL (≈ 0.0321 µM)
MIC90 [3]: 0.06 µg/mL (≈ 0.128 µM)
MIC Range [3]: ≦0.008-32 μg/mL
% S [4]: 64.4%
MIC50 [4]: 2 µg/mL (≈ 4.28 µM)
MIC90 [4]: 32 µg/mL (≈ 68.4 µM)
% S (Staphylococcus warneri): 86.0%
MIC50 (Staphylococcus warneri): 0.06 µg/mL (≈ 0.128 µM)
MIC90 (Staphylococcus warneri): 8 µg/mL (≈ 17.1 µM)
% S (Staphylococcus hominis): 32.0%
MIC50 (Staphylococcus hominis): 16 µg/mL (≈ 34.2 µM)
MIC90 (Staphylococcus hominis): 32 µg/mL (≈ 68.4 µM)
MIC50 (Streptococcus agalactiae; read-out: MIC50): 32 µg/mL (≈ 68.4 µM)
MIC90 (Streptococcus agalactiae; read-out: MIC90): 64 µg/mL (≈ 137 µM)
MIC Range (Streptococcus pneumoniae; Streptococcus pneumoniae (PISP, N = 2)): 16 to 32 µg/mL
MIC Range (Streptococcus pneumoniae; Streptococcus pneumoniae (PRSP, N = 2)): 16 to 32 µg/mL
MIC50 (Streptococcus pneumoniae; [17]): 16 µg/mL (≈ 34.2 µM)
MIC90 (Streptococcus pneumoniae; [17]): 32 µg/mL (≈ 68.4 µM)
MIC Range (Streptococcus pneumoniae; [17]): 8 to 32 µg/mL
MIC Range (Streptococcus pneumoniae; Streptococcus pneumoniae (all phenotypes, N = 35)): 8 to 32 µg/mL
MIC50 (Streptococcus pneumoniae; Streptococcus pneumoniae (all phenotypes, N = 35), read-out: MIC50): 16 µg/mL (≈ 34.2 µM)
MIC90 (Streptococcus pneumoniae; Streptococcus pneumoniae (all phenotypes, N = 35), read-out: MIC90): 32 µg/mL (≈ 68.4 µM)
MIC Range (Streptococcus pyogenes): 4 to 64 µg/mL
MIC50 (Streptococcus pyogenes; read-out: MIC50): 16 µg/mL (≈ 34.2 µM)
MIC90 (Streptococcus pyogenes; read-out: MIC90): 16 µg/mL (≈ 34.2 µM)
MIC Range [5]: 2 to 32 µg/mL
MIC50 ([5]; read-out: MIC50): 8 µg/mL (≈ 17.1 µM)
MIC90 ([5]; read-out: MIC90): 16 µg/mL (≈ 34.2 µM)
MIC Range (Viridans streptococci): 0.5 to 128 µg/mL
MIC50 (Viridans streptococci; read-out: MIC50): 16 µg/mL (≈ 34.2 µM)
MIC90 (Viridans streptococci; read-out: MIC90): 32 µg/mL (≈ 68.4 µM)
% S (Citrobacter koseri): 99.0%
MIC50 (Citrobacter koseri): 0.5 µg/mL (≈ 1.07 µM)
MIC90 (Citrobacter koseri): 1 µg/mL (≈ 2.14 µM)
MIC Range (Citrobacter koseri): 0.25 to 16 µg/mL
% S (Klebsiella oxytoca): 96.0%
MIC50 (Klebsiella oxytoca): 0.5 µg/mL (≈ 1.07 µM)
MIC90 (Klebsiella oxytoca): 1 µg/mL (≈ 2.14 µM)
MIC Range (Klebsiella oxytoca): 0.25 to 8 µg/mL
MIC Range (Haemophilus influenzae; [18]): 0.06 to 4 µg/mL
MIC Range (Haemophilus influenzae; [19]): 0.06 to 4 µg/mL
MIC Range (Haemophilus influenzae; [20]): 0.5 to 4 µg/mL
MIC50 (Haemophilus influenzae; [18]): 2 µg/mL (≈ 4.28 µM)
MIC90 (Haemophilus influenzae; [18]): 4 µg/mL (≈ 8.56 µM)
MIC50 (Haemophilus influenzae; [19]): 2 µg/mL (≈ 4.28 µM)
MIC90 (Haemophilus influenzae; [19]): 4 µg/mL (≈ 8.56 µM)
MIC50 (Haemophilus influenzae; [20]): 2 µg/mL (≈ 4.28 µM)
MIC90 (Haemophilus influenzae; [20]): 2 µg/mL (≈ 4.28 µM)
MIC50 (Legionella pneumophila; Legionella pneumophila): 1 µg/mL (≈ 2.14 µM)
MIC90 (Legionella pneumophila; Legionella pneumophila): 2 µg/mL (≈ 4.28 µM)
MIC Range (Legionella pneumophila; Legionella pneumophila (N = 50)): 0.25 to 4 µg/mL
MIC50 (Moraxella catarrhalis): 0.25 µg/mL (≈ 0.535 µM)
MIC90 (Moraxella catarrhalis): 0.25 µg/mL (≈ 0.535 µM)
MIC Range (Moraxella catarrhalis): 0.03 to 0.5 µg/mL
% S (Morganella morganii): 90.2%
MIC50 (Morganella morganii): 1 µg/mL (≈ 2.14 µM)
MIC90 (Morganella morganii): 4 µg/mL (≈ 8.56 µM)
MIC Range (Morganella morganii): 0.25 to 32 µg/mL
